Test systems include ACHN renal; COLO 205 colon; HCT-116 colon; HT29 colon; LOX IMVI melanoma; MCF7 breast; NCI-H23 lung; NCI-H522 lung; OVCAR-3 ovarian; OVCAR-4 ovarian; RXF 393 renal; SF-268 CNS; SF-295 CNS; SK-MEL-28 melanoma; SN12C renal; SR leukemia; T-47D breast; TK-10 renal.
Common to all, as to experiment: growth of human tumour cells (NCI), 48 h

Our source for the TGI values is PubChem BioAssay (NCI).

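Test compounds were applied to cells in 96-well plates for 48 hours at 5 doses. At the TGI there is no net growth.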 Where only a bound is given, the exact number is not on record here.

For `O=C1Cc2c(-c3cccs3)cc(-c3ccccc3)nc2-c2ccccc2N1`, the TGI is greater than 100 µM in the experiment on ACHN renal; greater than 100 µM with COLO 205 colon; greater than 100 µM in the experiment with HCT-116 colon; 43.9 µM in the experiment on HT29 colon; greater than 100 µM in the experiment with LOX IMVI melanoma; greater than 100 µM in the experiment on MCF7 breast. Further, the TGI with NCI-H23 lung is greater than 100 µM; in the experiment with NCI-H522 lung it was greater than 100 µM; with OVCAR-3 ovarian, greater than 100 µM; in the experiment on OVCAR-4 ovarian, greater than 100 µM; with RXF 393 renal it was greater than 100 µM; with SF-268 CNS it was 56.8 µM. Moreover, the TGI with SF-295 CNS, in the experiment with SK-MEL-28 melanoma, in the experiment on SN12C renal, in the experiment on SR leukemia, with T-47D breast and in the experiment with TK-10 renal was greater than 100 µM in each case.

For `COc1cc(CN=c2nc(N(C)C)ss2)cc(OC)c1OC`, the TGI is greater than 10 µM in the experiment with ACHN renal; greater than 10 µM in the experiment on COLO 205 colon; greater than 10 µM in the experiment with HCT-116 colon; greater than 10 µM with HT29 colon; 4.4 µM in the experiment with LOX IMVI melanoma; greater than 10 µM with MCF7 breast. Also, the TGI in the experiment on NCI-H23 lung, with NCI-H522 lung, in the experiment with OVCAR-3 ovarian, in the experiment on OVCAR-4 ovarian, in the experiment on RXF 393 renal and in the experiment on SF-268 CNS was greater than 10 µM throughout. Besides, the TGI in the experiment with SF-295 CNS is greater than 10 µM; in the experiment on SK-MEL-28 melanoma, greater than 10 µM; in the experiment with SN12C renal it was greater than 10 µM; in the experiment with SR leukemia, 3.38 µM; with T-47D breast, greater than 10 µM; with TK-10 renal, greater than 10 µM.

For the compound `CCCc1nnc2sc(COc3ccc(OCc4nn5c(CCC)nnc5s4)c(Cl)c3)nn12`, the TGI in the experiment on ACHN renal was 59.1 µM; in the experiment with COLO 205 colon, greater than 100 µM; in the experiment with HCT-116 colon it was greater than 100 µM; in the experiment with HT29 colon it was 98.9 µM; with LOX IMVI melanoma it was greater than 100 µM; in the experiment with MCF7 breast, 55.3 µM. Moreover, the TGI in the experiment on NCI-H23 lung is greater than 100 µM; with NCI-H522 lung, greater than 100 µM; in the experiment on OVCAR-3 ovarian it was greater than 100 µM; with OVCAR-4 ovarian, 74.6 µM; in the experiment with RXF 393 renal it was greater than 100 µM; with SF-268 CNS, greater than 100 µM. For the same compound, the TGI in the experiment on SF-295 CNS was greater than 100 µM; in the experiment on SK-MEL-28 melanoma it was greater than 100 µM; in the experiment with SN12C renal, greater than 100 µM; in the experiment on SR leukemia, 64.1 µM; in the experiment with T-47D breast, 39.6 µM; in the experiment with TK-10 renal it was 93.5 µM.

As for `COc1cc2nc3n(c2cc1OC)C(O)c1c(Cl)nc(SC)nc1S3` (centres undefined), the TGI was 42.2 µM in the experiment with ACHN renal; 22.9 µM in the experiment on COLO 205 colon; 10.3 µM in the experiment on HCT-116 colon; greater than 100 µM in the experiment with HT29 colon; 5.07 µM in the experiment with LOX IMVI melanoma; 15 µM in the experiment on MCF7 breast. Also, the TGI in the experiment on NCI-H23 lung is 18.3 µM; with NCI-H522 lung it was 4.36 µM; in the experiment with OVCAR-3 ovarian, 13.3 µM; in the experiment with OVCAR-4 ovarian, greater than 39 µM; in the experiment with RXF 393 renal, 14.8 µM; in the experiment on SF-268 CNS, greater than 100 µM. The TGI with SF-295 CNS is greater than 94.5 µM; in the experiment with SK-MEL-28 melanoma it was 23.2 µM; with SN12C renal, 21 µM; in the experiment with SR leukemia it was greater than 100 µM; in the experiment on T-47D breast it was greater than 59 µM; in the experiment with TK-10 renal, greater than 74 µM.

As to `O=C1C2C3C4C1C1C2[C@H](OCc2ccccc2)C3C1[C@H]4OCc1ccccc1` (some centres undefined), the TGI with ACHN renal is greater than 100 µM; in the experiment with COLO 205 colon, 82.5 µM; with HCT-116 colon, greater than 100 µM; in the experiment with HT29 colon, 32.7 µM; in the experiment with LOX IMVI melanoma it was greater than 100 µM; in the experiment on MCF7 breast it was greater than 100 µM. Besides, the TGI with NCI-H23 lung is greater than 100 µM; in the experiment with NCI-H522 lung, 57.9 µM; in the experiment with OVCAR-3 ovarian it was greater than 100 µM; with OVCAR-4 ovarian, greater than 100 µM; in the experiment with RXF 393 renal it was greater than 100 µM; in the experiment with SF-268 CNS it was greater than 100 µM. The TGI in the experiment with SF-295 CNS, with SK-MEL-28 melanoma, with SN12C renal, in the experiment on SR leukemia, in the experiment with T-47D breast and in the experiment with TK-10 renal was greater than 100 µM in each case.

Take `O=C(O)c1ccccc1CN1CCCC(C(=O)O)C1` (centres undefined): the TGI in the experiment with ACHN renal, in the experiment with COLO 205 colon, with HCT-116 colon, in the experiment with HT29 colon, with LOX IMVI melanoma and with MCF7 breast was greater than 100 µM in each case. In addition, the TGI in the experiment on NCI-H23 lung, with NCI-H522 lung, with OVCAR-3 ovarian, in the experiment on OVCAR-4 ovarian, in the experiment with RXF 393 renal and in the experiment on SF-268 CNS was greater than 100 µM each time. For the same compound, the TGI in the experiment on SF-295 CNS, in the experiment with SK-MEL-28 melanoma, with SN12C renal, in the experiment with SR leukemia, in the experiment with T-47D breast and with TK-10 renal was greater than 100 µM each time.

`Cc1cn2cc(-c3cccs3)nc2s1`: the TGI in the experiment with ACHN renal is greater than 100 µM; with COLO 205 colon it was greater than 100 µM; with HCT-116 colon, greater than 100 µM; in the experiment on HT29 colon, greater than 90.1 µM; in the experiment with LOX IMVI melanoma it was greater than 100 µM; in the experiment with MCF7 breast it was greater than 100 µM. Besides, the TGI with NCI-H23 lung, in the experiment with NCI-H522 lung, in the experiment with OVCAR-3 ovarian, in the experiment with OVCAR-4 ovarian, in the experiment on RXF 393 renal and in the experiment with SF-268 CNS was greater than 100 µM each time. The TGI with SF-295 CNS, in the experiment on SK-MEL-28 melanoma, with SN12C renal, with SR leukemia, in the experiment on T-47D breast and with TK-10 renal was greater than 100 µM each time.

On to `NC(N)=N/N=C/c1c(-c2ccccc2[N+](=O)[O-])nc2sccn12`, for which the TGI with ACHN renal was greater than 100 µM; with COLO 205 colon, 29.4 µM; in the experiment on HCT-116 colon, 34.4 µM; in the experiment with HT29 colon, 81.6 µM; in the experiment on LOX IMVI melanoma it was 44.4 µM; with MCF7 breast, 38.1 µM. Also, the TGI was 86.5 µM in the experiment with NCI-H23 lung; 39.8 µM in the experiment on NCI-H522 lung; greater than 100 µM with OVCAR-3 ovarian; greater than 100 µM with OVCAR-4 ovarian; 32.4 µM in the experiment on RXF 393 renal; greater than 100 µM in the experiment on SF-268 CNS. For the same compound, the TGI in the experiment with SF-295 CNS is 50 µM; in the experiment on SK-MEL-28 melanoma it was greater than 100 µM; in the experiment with SN12C renal it was greater than 100 µM; in the experiment on SR leukemia it was 35.1 µM; in the experiment with T-47D breast, 59 µM; in the experiment with TK-10 renal, 57 µM.
